Measured values published in patent publication US20230131899A1, “INHIBITORS OF MICROBIALLY INDUCED AMYLOID” (Axial Therapeutics, Inc., priority 2020, published 2023).
Like-named read-outs stand apart in the source and are kept apart here.

Biological target: T1, human α-synuclein (Homo sapiens, UniProt P37840)
T1 construct: the full-length gene for untagged human α-synuclein was inserted; made in house; host or cells: E. coli BL21(DE3), plasmid derived from pT7 or pET11a
Test: Cell-free Thioflavin T assay of α-synuclein aggregation (αSyn ThT Assay)
Assay type: biochemical
Conditions: αSyn 50 μM
Procedure, shortened: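 Untagged full-length human α-synuclein from E. coli, 50 μM, with 20-40 μM ThT, 1% DMSO, compound at 20-100 μM and a glass bead, 37° C. with shaking. Fluorescence (ex 438/em 495 nm) read hourly to 73 h. Compound-only background subtracted and values normalised to vehicle at 36-72 h or final timepoint, giving % inhibition.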

[1] = class symbol, compounds 100 μM, read-out: αSyn ThT Assay % inhibition, activity range
[2] = mean percent inhibition relative to DMSO control, compounds 100 μM, read-out: αSyn ThT Assay % inhibition
[3] = mean % inhibition of αSyn aggregation relative to DMSO control, compounds at 100 μM, read-out: αSyn ThT Assay % Inhibition
[4] = compounds at 100 μM, class symbol, read-out: αSyn ThT Assay % Inhibition (activity range)

**Q.** For `CC(C)(C)c1ccc(Cc2c(-c3cccc(C(F)(F)F)c3)c3n(c(=O)c2Cl)C(C(=O)O)CN3Cc2ccccc2)cc1` (centres unmarked) [Compound 216, 1-benzyl-7-(4-(tert-butyl)benzyl)-6-chloro-5-oxo-8-(3-(trifluoromethyl)phenyl)-1,2,3,5-tetrahydroimidazo[1,2-a]pyridine-3-carboxylic acid], which inhibition at 100 µM [1] is on record?
**A.** The inhibition at 100 µM was 31 to 60%.

**Q.** And the inhibition at 100 µM [2]?
**A.** Its inhibition at 100 µM is 46%.

**Q.** For `O=C(O)C1CN(CCCCCCCN2CC(C(=O)O)n3c2c(-c2cccc(C(F)(F)F)c2)c(Cc2cccc4ccccc24)c(Cl)c3=O)c2c(-c3cccc(C(F)(F)F)c3)c(Cc3cccc4ccccc34)c(Cl)c(=O)n21` (centres unmarked) [Compound 188, 1,1′-(heptane-1,7-diyl)bis(6-chloro-7-(naphthalen-1-ylmethyl)-5-oxo-8-(3-(trifluoromethyl)phenyl)-1,2,3,5-tetrahydroimidazo[1,2-a]pyridine-3-carboxylic acid)], which inhibition at 100 µM [1] is on record?
**A.** Its inhibition at 100 µM is over 60%.

**Q.** What about the inhibition at 100 µM [2] of the same compound?
**A.** Its inhibition at 100 µM is 62%.

**Q.** Which results are given for `O=C(O)C1CN(Cc2cccc(O)c2)c2c(-c3cccc(C(F)(F)F)c3)c(Cc3cccc4ccccc34)c(Cl)c(=O)n21` (centres unmarked) [Compound 196, 6-chloro-1-(3-hydroxybenzyl)-7-(naphthalen-1-ylmethyl)-5-oxo-8-(3-(trifluoromethyl)phenyl)-1,2,3,5-tetrahydroimidazo[1,2-a]pyridine-3-carboxylic acid]?
**A.** inhibition at 100 µM [1]: > 60%; inhibition at 100 µM [2]: 61%

**Q.** How did the inhibition at 100 µM [3] turn out when `O=C(O)C1CN(C[C@H](O)[C@@H](O)[C@H](O)[C@H](O)CO)S(=O)(=O)c2c(-c3cccc(C(F)(F)F)c3)c(Cc3cccc4ccccc34)cc(=O)n21` (mixture of isomers) [Compound 066, 8-(naphthalen-1-ylmethyl)-6-oxo-2-((2S,3R,4R,5R)-2,3,4,5,6-pentahydroxyhexyl)-9-(3-(trifluoromethyl)phenyl)-3,4-dihydro-2H,6H-pyrido[1,2-e][1,2,5]thiadiazine-4-carboxylic acid 1,1-dioxide] was run?
**A.** Its inhibition at 100 µM is 13%.

**Q.** What about the inhibition at 100 µM [4] of the same compound?
**A.** Its inhibition at 100 µM is 11 to 30%.

**Q.** Which results are given for `CCc1c(Cc2cccc3ccccc23)c(-c2cccc(C(F)(F)F)c2)c2n(c1=O)C(C(=O)O)CN2Cc1ccccc1` (centres unmarked) [Compound 140, 1-benzyl-6-ethyl-7-(naphthalen-1-ylmethyl)-5-oxo-8-(3-(trifluoromethyl)phenyl)-1,2,3,5-tetrahydroimidazo[1,2-a]pyridine-3-carboxylic acid]?
**A.** inhibition at 100 µM [1]: 31 to 60%; inhibition at 100 µM [2]: 48%

**Q.** With `O=C(O)[C@H]1CN(Cc2ccccc2)c2c(-c3cccc(C(F)(F)F)c3)c(Cc3cccc4ccccc34)c(Cl)c(=O)n21` (single isomer, unassigned) [Compound 004b] as the compound, how does the inhibition at 100 µM [1] read?
**A.** The inhibition at 100 µM was 31 to 60%.

**Q.** What about the inhibition at 100 µM [2] of the same compound?
**A.** Its inhibition at 100 µM is 44%.

**Q.** `O=C(O)C1CN(Cc2ccc(-c3ccccc3)cc2)c2c(-c3cccc(C(F)(F)F)c3)c(Cc3cccc4ccccc34)c(Cl)c(=O)n21` (centres unmarked) [Compound 202, 1-([1,1′-biphenyl]-4-ylmethyl)-6-chloro-7-(naphthalen-1-ylmethyl)-5-oxo-8-(3-(trifluoromethyl)phenyl)-1,2,3,5-tetrahydroimidazo[1,2-a]pyridine-3-carboxylic acid] was tested. Which inhibition at 100 µM [1] did it give?
**A.** Its inhibition at 100 µM is 31 to 60%.

**Q.** What about the inhibition at 100 µM [2] of the same compound?
**A.** The inhibition at 100 µM was 54%.

**Q.** Which results are given for `O=C(O)C1CN(CCCCCCN2CC(C(=O)O)n3c2c(-c2cccc(C(F)(F)F)c2)c(Cc2cccc4ccccc24)c(Cl)c3=O)c2c(-c3cccc(C(F)(F)F)c3)c(Cc3cccc4ccccc34)c(Cl)c(=O)n21` (centres unmarked) [Compound 193, 1,1′-(hexane-1,6-diyl)bis(6-chloro-7-(naphthalen-1-ylmethyl)-5-oxo-8-(3-(trifluoromethyl)phenyl)-1,2,3,5-tetrahydroimidazo[1,2-a]pyridine-3-carboxylic acid)]?
**A.** inhibition at 100 µM [1]: > 60%; inhibition at 100 µM [2]: 69%

**Q.** For `Nc1c(Cc2cccc3ccccc23)c(-c2cccc(C(F)(F)F)c2)c2n(c1=O)C(C(=O)O)CS2` (single isomer, unassigned) [Compound 020b, 6-amino-7-(naphthalen-1-ylmethyl)-5-oxo-8-(3-(trifluoromethyl)phenyl)-2,3-dihydro-5H-thiazolo[3,2-a]pyridine-3-carboxylic acid], which inhibition at 100 µM [3] is on record?
**A.** Its inhibition at 100 µM is 25%.

**Q.** And the inhibition at 100 µM [4]?
**A.** The inhibition at 100 µM was 11 to 30%.

**Q.** Which results are given for `CC(C)N1CC(C(=O)O)n2c(c(-c3cccc(C(F)(F)F)c3)c(Cc3cccc4ccccc34)c(C(N)=O)c2=O)S1(=O)=O` (centres unmarked) [Compound 175, 7-carbamoyl-2-isopropyl-8-(naphthalen-1-ylmethyl)-6-oxo-9-(3-(trifluoromethyl)phenyl)-3,4-dihydro-2H,6H-pyrido[1,2-e][1,2,5]thiadiazine-4-carboxylic acid 1,1-dioxide]?
**A.** inhibition at 100 µM [1]: > 60%; inhibition at 100 µM [2]: 98%

**Q.** How did the inhibition at 100 µM [1] turn out when `CCc1c(Cc2cccc3ccccc23)c(-c2cccc(C(F)(F)F)c2)c2n(c1=O)C(C(=O)O)CN2Cc1ccc(OC)cc1` (centres unmarked) [Compound 161, 6-ethyl-1-(4-methoxybenzyl)-7-(naphthalen-1-ylmethyl)-5-oxo-8-(3-(trifluoromethyl)phenyl)-1,2,3,5-tetrahydroimidazo[1,2-a]pyridine-3-carboxylic acid] was run?
**A.** Its inhibition at 100 µM is 31 to 60%.

**Q.** What about the inhibition at 100 µM [2] of the same compound?
**A.** The inhibition at 100 µM was 44%.

**Q.** What does the source list for `O=C(O)C1CN(CCCCCO)c2c(-c3cccc(C(F)(F)F)c3)c(Cc3cccc4ccccc34)c(Cl)c(=O)n21` (centres unmarked) [Compound 199, 6-chloro-1-(5-hydroxypentyl)-7-(naphthalen-1-ylmethyl)-5-oxo-8-(3-(trifluoromethyl)phenyl)-1,2,3,5-tetrahydroimidazo[1,2-a]pyridine-3-carboxylic acid]?
**A.** inhibition at 100 µM [1]: 11 to 30%; inhibition at 100 µM [2]: 29%

**Q.** For `O=C(O)C1CSc2c(-c3cccc(C(F)(F)F)c3)c(Cc3cccc4ccccc34)cc(=S)n21` (centres unmarked) [Compound 054, 7-(naphthalen-1-ylmethyl)-5-thioxo-8-(3-(trifluoromethyl)phenyl)-2,3-dihydro-5H-thiazolo[3,2-a]pyridine-3-carboxylic acid], which inhibition at 100 µM [3] is on record?
**A.** Its inhibition at 100 µM is 39%.

**Q.** And the inhibition at 100 µM [4]?
**A.** The inhibition at 100 µM was 31 to 60%.

**Q.** Which inhibition at 100 µM [1] does the source give for `O=C(O)C1CN(Cc2ccccc2)c2c(-c3cccc(Br)c3)c(Cc3cccc4ccccc34)c(Cl)c(=O)n21` (centres unmarked) [Compound 198, 1-benzyl-8-(3-bromophenyl)-6-chloro-7-(naphthalen-1-ylmethyl)-5-oxo-1,2,3,5-tetrahydroimidazo[1,2-a]pyridine-3-carboxylic acid] here?
**A.** The inhibition at 100 µM was over 60%.

**Q.** And the inhibition at 100 µM [2]?
**A.** Its inhibition at 100 µM is 75%.

**Q.** `CC1(C(=O)O)CNS(=O)(=O)c2c(-c3cccc(C(F)(F)F)c3)c(Cc3cccc4ccccc34)cc(=O)n21` (centres unmarked) [Compound 042, 4-methyl-8-(naphthalen-1-ylmethyl)-6-oxo-9-(3-(trifluoromethyl)phenyl)-3,4-dihydro-2H,6H-pyrido[1,2-e][1,2,5]thiadiazine-4-carboxylic acid 1,1-dioxide] was tested. Which inhibition at 100 µM [3] did it give?
**A.** Its inhibition at 100 µM is 84%.

**Q.** What about the inhibition at 100 µM [4] of the same compound?
**A.** The inhibition at 100 µM was over 60%.

**Q.** Which inhibition at 100 µM [1] does the source give for `CC(C)N1CC(C(=O)O)n2c1c(-c1cccc(C(F)(F)F)c1)c(Cc1cccc3ccccc13)c(Cl)c2=O` (centres unmarked) [Compound 179, 6-chloro-1-isopropyl-7-(naphthalen-1-ylmethyl)-5-oxo-8-(3-(trifluoromethyl)phenyl)-1,2,3,5-tetrahydroimidazo[1,2-a]pyridine-3-carboxylic acid] here?
**A.** Its inhibition at 100 µM is over 60%.

**Q.** And the inhibition at 100 µM [2]?
**A.** The inhibition at 100 µM was 72%.

**Q.** Which results are given for `CN1CC(C(=O)O)n2c(c(-c3cccc(C(F)(F)F)c3)c(Cc3cccc4ccccc34)c(NCc3ccccc3)c2=O)S1(=O)=O` (centres unmarked) [Compound 071]?
**A.** inhibition at 100 µM [3]: 38%; inhibition at 100 µM [4]: 31 to 60%

**Q.** `O=C(O)C1CN(CCCO)S(=O)(=O)c2c(-c3cccc(C(F)(F)F)c3)c(Cc3cccc4ccccc34)cc(=O)n21` (centres unmarked) [Compound 056, 2-(3-hydroxypropyl)-8-(naphthalen-1-ylmethyl)-6-oxo-9-(3-(trifluoromethyl)phenyl)-3,4-dihydro-2H,6H-pyrido[1,2-e][1,2,5]thiadiazine-4-carboxylic acid 1,1-dioxide] was tested. Which inhibition at 100 µM [3] did it give?
**A.** Its inhibition at 100 µM is 59%.

**Q.** And the inhibition at 100 µM [4]?
**A.** Its inhibition at 100 µM is 31 to 60%.

**Q.** Which results are given for `Cn1c(=O)c2c(nc(CCCCCCCN3CC(C(=O)O)n4c(c(-c5cccc(C(F)(F)F)c5)c(Cc5cccc6ccccc56)cc4=O)S3(=O)=O)n2C)n(C)c1=O` (centres unmarked) [Compound 047, 8-(naphthalen-1-ylmethyl)-6-oxo-9-(3-(trifluoromethyl)phenyl)-2-(7-(1,3,7-trimethyl-2,6-dioxo-2,3,6,7-tetrahydro-1H-purin-8-yl)heptyl)-3,4-dihydro-2H,6H-pyrido[1,2-e][1,2,5]thiadiazine-4-carboxylic acid 1,1-dioxide]?
**A.** inhibition at 100 µM [3]: 21%; inhibition at 100 µM [4]: 11 to 30%

**Q.** What does the source list for `CNC(=O)CCCCN1CC(C(=O)O)n2c(c(-c3cccc(C(F)(F)F)c3)c(Cc3cccc4ccccc34)cc2=O)S1(=O)=O` (centres unmarked) [Compound 038, 2-(5-(methylamino)-5-oxopentyl)-8-(naphthalen-1-ylmethyl)-6-oxo-9-(3-(trifluoromethyl)phenyl)-3,4-dihydro-2H,6H-pyrido[1,2-e][1,2,5]thiadiazine-4-carboxylic acid 1,1-dioxide]?
**A.** inhibition at 100 µM [3]: 42%; inhibition at 100 µM [4]: 31 to 60%

**Q.** `Cn1c(=O)c2c(nc(CCCCN3CC(C(=O)O)n4c(c(-c5cccc(C(F)(F)F)c5)c(Cc5cccc6ccccc56)cc4=O)S3(=O)=O)n2C)n(C)c1=O` (centres unmarked) [Compound 044, 8-(naphthalen-1-ylmethyl)-6-oxo-9-(3-(trifluoromethyl)phenyl)-2-(4-(1,3,7-trimethyl-2,6-dioxo-2,3,6,7-tetrahydro-1H-purin-8-yl)butyl)-3,4-dihydro-2H,6H-pyrido[1,2-e][1,2,5]thiadiazine-4-carboxylic acid 1,1-dioxide] was tested. Which inhibition at 100 µM [3] did it give?
**A.** The inhibition at 100 µM was 10%.

**Q.** And the inhibition at 100 µM [4]?
**A.** Its inhibition at 100 µM is -10 to 10%.

**Q.** What does the source list for `CCCCN1CC(C(=O)O)n2c(c(-c3cccc(C(F)(F)F)c3)c(Cc3cccc4ccccc34)c(C(N)=O)c2=O)S1(=O)=O` (centres unmarked) [Compound 177, 2-butyl-7-carbamoyl-8-(naphthalen-1-ylmethyl)-6-oxo-9-(3-(trifluoromethyl)phenyl)-3,4-dihydro-2H,6H-pyrido[1,2-e][1,2,5]thiadiazine-4-carboxylic acid 1,1-dioxide]?
**A.** inhibition at 100 µM [1]: > 60%; inhibition at 100 µM [2]: 97%
